How the values were obtained:
[1] = Chemical stability in acetonitrile at 60 degC up to 30 min by HPLC analysis; type: physicochemical; settings: 0.5 h
Tumour [2] = assay: Biodistribution in tumor of Mus musculus KM (mouse) at 3.7 MBq, iv measured at 5 min by microPET imaging analysis; type: ADME, organism-based, Neoplasm; settings: in vivo
Lung [3] = assay: Biodistribution in tumor bearing Mus musculus KM (mouse) lung at 3.7 MBq, iv measured at 30 min by microPET imaging analysis; type: ADME, organism-based; settings: in vivo, 0.5 h
Muscle tissue [4] = assay: Biodistribution in tumor bearing Mus musculus KM (mouse) muscle at 3.7 MBq, iv measured at 30 min by microPET imaging analysis; type: ADME, organism-based; settings: in vivo, 0.5 h
Kidney [5] = assay: Biodistribution in tumor bearing Mus musculus KM (mouse) kidney at 3.7 MBq, iv measured at 5 min by microPET imaging analysis; type: ADME, organism-based; settings: in vivo
Muscle tissue [6] = assay: Biodistribution in tumor bearing Mus musculus KM (mouse) muscle at 3.7 MBq, iv measured at 60 min by microPET imaging analysis; type: ADME, organism-based; settings: in vivo, 1 h
Blood [7] = assay: Biodistribution in tumor bearing Mus musculus KM (mouse) blood at 3.7 MBq, iv measured at 120 min by microPET imaging analysis; type: ADME, organism-based; settings: in vivo, 2 h
Spleen [8] = assay: Biodistribution in tumor bearing Mus musculus KM (mouse) spleen at 3.7 MBq, iv measured at 60 min by microPET imaging analysis; type: ADME, organism-based; settings: in vivo, 1 h
Kidney [9] = assay: Clearance in tumor-bearing Mus musculus KM (mouse) kidney at 3.7 MBq, iv measured at 60 min; type: ADME, organism-based; settings: in vivo, 1 h
Blood [10] = assay: Biodistribution in tumor bearing Mus musculus KM (mouse) blood at 3.7 MBq, iv measured at 60 min by microPET imaging analysis; type: ADME, organism-based; settings: in vivo, 1 h
Liver [11] = assay: Clearance in tumor-bearing Mus musculus KM (mouse) liver at 3.7 MBq, iv measured at 60 min; type: ADME, organism-based; settings: in vivo, 1 h
Heart [12] = assay: Biodistribution in tumor bearing Mus musculus KM (mouse) heart at 3.7 MBq, iv by microPET imaging analysis; type: ADME, organism-based; settings: in vivo, TDE = time-dependent effect
Liver [13] = assay: Biodistribution in tumor bearing Mus musculus KM (mouse) liver at 3.7 MBq, iv measured at 120 min by microPET imaging analysis; type: ADME, organism-based; settings: in vivo, 2 h
Nucleic Acid [14] = assay: Ratio of drug uptake in tumor to muscle in Mus musculus KM (mouse) at 3.7 MBq, iv at 120 min; type: ADME, organism-based; settings: in vivo, 2 h
Tumour [15] = assay: Biodistribution in tumor of Mus musculus KM (mouse) at 3.7 MBq, iv measured at 60 min by microPET imaging analysis; type: ADME, organism-based, Neoplasm; settings: in vivo, 1 h
Liver [16] = assay: Biodistribution in tumor bearing Mus musculus KM (mouse) liver at 3.7 MBq, iv measured at 60 min by microPET imaging analysis; type: ADME, organism-based; settings: in vivo, 1 h
Liver [17] = assay: Biodistribution in tumor bearing Mus musculus KM (mouse) liver at 3.7 MBq, iv measured at 15 min by microPET imaging analysis; type: ADME, organism-based; settings: in vivo, 0.25 h
Brain [18] = assay: Biodistribution in tumor bearing Mus musculus KM (mouse) brain at 3.7 MBq, iv measured at 120 min by microPET imaging analysis; type: ADME, organism-based; settings: in vivo, 2 h
Brain [19] = assay: Biodistribution in tumor bearing Mus musculus KM (mouse) brain at 3.7 MBq, iv measured at 5 min by microPET imaging analysis; type: ADME, organism-based; settings: in vivo
Liver [20] = assay: Biodistribution in tumor bearing Mus musculus KM (mouse) liver at 3.7 MBq, iv measured at 5 min by microPET imaging analysis; type: ADME, organism-based; settings: in vivo
[21] = Chemical stability in sodium chloride up to 2 hr by HPLC analysis; type: physicochemical
Brain [22] = assay: Biodistribution in tumor bearing Mus musculus KM (mouse) brain at 3.7 MBq, iv measured at 60 min by microPET imaging analysis; type: ADME, organism-based; settings: in vivo, 1 h
Blood [23] = assay: Clearance in tumor-bearing Mus musculus KM (mouse) blood at 3.7 MBq, iv measured at 60 min; type: ADME, organism-based; settings: in vivo, 1 h
Heart [24] = assay: Biodistribution in tumor bearing Mus musculus KM (mouse) heart at 3.7 MBq, iv measured at 120 min by microPET imaging analysis; type: ADME, organism-based; settings: in vivo, 2 h
Lung [25] = assay: Biodistribution in tumor bearing Mus musculus KM (mouse) lung at 3.7 MBq, iv measured at 15 min by microPET imaging analysis; type: ADME, organism-based; settings: in vivo, 0.25 h
Tumour [26] = assay: Biodistribution in tumor of Mus musculus KM (mouse) at 3.7 MBq, iv measured at 120 min by microPET imaging analysis; type: ADME, organism-based, Neoplasm; settings: in vivo, 2 h
Tumour [27] = assay: Biodistribution in tumor of Mus musculus KM (mouse) at 3.7 MBq, iv by microPET imaging analysis; type: ADME, organism-based, Neoplasm; settings: in vivo, TDE = time-dependent effect
Muscle tissue [28] = assay: Biodistribution in tumor bearing Mus musculus KM (mouse) muscle at 3.7 MBq, iv measured at 120 min by microPET imaging analysis; type: ADME, organism-based; settings: in vivo, 2 h
Blood [29] = assay: Biodistribution in tumor bearing Mus musculus KM (mouse) blood at 3.7 MBq, iv by microPET imaging analysis; type: ADME, organism-based; settings: in vivo, TDE = time-dependent effect
Kidney [30] = assay: Biodistribution in tumor bearing Mus musculus KM (mouse) kidney at 3.7 MBq, iv measured at 120 min by microPET imaging analysis; type: ADME, organism-based; settings: in vivo, 2 h
Muscle tissue [31] = assay: Biodistribution in tumor bearing Mus musculus KM (mouse) muscle at 3.7 MBq, iv by microPET imaging analysis; type: ADME, organism-based; settings: in vivo, TDE = time-dependent effect
Spleen [32] = assay: Biodistribution in tumor bearing Mus musculus KM (mouse) spleen at 3.7 MBq, iv measured at 120 min by microPET imaging analysis; type: ADME, organism-based; settings: in vivo, 2 h
Spleen [33] = assay: Biodistribution in tumor bearing Mus musculus KM (mouse) spleen at 3.7 MBq, iv by microPET imaging analysis; type: ADME, organism-based; settings: in vivo, TDE = time-dependent effect
Lung [34] = assay: Biodistribution in tumor bearing Mus musculus KM (mouse) lung at 3.7 MBq, iv by microPET imaging analysis; type: ADME, organism-based; settings: in vivo, TDE = time-dependent effect
Blood [35] = assay: Biodistribution in tumor bearing Mus musculus KM (mouse) blood at 3.7 MBq, iv measured at 5 min by microPET imaging analysis; type: ADME, organism-based; settings: in vivo
Lung [36] = assay: Biodistribution in tumor bearing Mus musculus KM (mouse) lung at 3.7 MBq, iv measured at 60 min by microPET imaging analysis; type: ADME, organism-based; settings: in vivo, 1 h
Kidney [37] = assay: Biodistribution in tumor bearing Mus musculus KM (mouse) kidney at 3.7 MBq, iv measured at 60 min by microPET imaging analysis; type: ADME, organism-based; settings: in vivo, 1 h
Muscle tissue [38] = assay: Biodistribution in tumor bearing Mus musculus KM (mouse) muscle at 3.7 MBq, iv measured at 15 min by microPET imaging analysis; type: ADME, organism-based; settings: in vivo, 0.25 h
Nucleic Acid [39] = assay: Ratio of drug uptake in tumor to muscle in Mus musculus KM (mouse) at 3.7 MBq, iv at 5 min; type: ADME, organism-based; settings: in vivo
Spleen [40] = assay: Biodistribution in tumor bearing Mus musculus KM (mouse) spleen at 3.7 MBq, iv measured at 15 min by microPET imaging analysis; type: ADME, organism-based; settings: in vivo, 0.25 h
Muscle tissue [41] = assay: Biodistribution in tumor bearing Mus musculus KM (mouse) muscle at 3.7 MBq, iv measured at 5 min by microPET imaging analysis; type: ADME, organism-based; settings: in vivo
Heart [42] = assay: Biodistribution in tumor bearing Mus musculus KM (mouse) heart at 3.7 MBq, iv measured at 5 min by microPET imaging analysis; type: ADME, organism-based; settings: in vivo
Blood [43] = assay: Biodistribution in tumor bearing Mus musculus KM (mouse) blood at 3.7 MBq, iv measured at 30 min by microPET imaging analysis; type: ADME, organism-based; settings: in vivo, 0.5 h

COC(=O)CNC(=O)c1ccc(OCC[18F])cc1 [[18F]FEBA]
Stability [1]: Stable | Drug uptake (Tumour [2]): 2.12 % ID/g | Drug uptake (Lung [3]): 1.32 % ID/g | Drug uptake (Muscle tissue [4]): 0.94 % ID/g | Drug uptake (Kidney [5]): 7.25 % ID/g | Drug uptake (Muscle tissue [6]): 0.53 % ID/g | Drug uptake (Blood [7]): 0.85 % ID/g | Drug uptake (Spleen [8]): 0.64 % ID/g | CL (Kidney [9]): 97% | Drug uptake (Blood [10]): 0.98 % ID/g | CLH (Liver [11]): 91% | Drug uptake (Heart [12]): tde | Drug uptake (Liver [13]): 0.68 % ID/g | Ratio (Nucleic Acid [14]): 1.03 | Drug uptake (Tumour [15]): 1.48 % ID/g | Drug uptake (Liver [16]): 0.73 % ID/g | Drug uptake (Liver [17]): 2.11 % ID/g | Drug uptake (Brain [18]): 0.6 % ID/g | Drug uptake (Brain [19]): 1.51 % ID/g | Drug uptake (Liver [20]): 4.19 % ID/g | Stability [21]: Stable | Drug uptake (Brain [22]): 0.55 % ID/g | CL (Blood [23]): 96% | Drug uptake (Heart [24]): 0.77 % ID/g | Drug uptake (Lung [25]): 1.69 % ID/g | Drug uptake (Tumour [26]): 1.21 % ID/g | Drug uptake (Tumour [27]): tde | Drug uptake (Muscle tissue [28]): 1.17 % ID/g | Drug uptake (Blood [29]): tde | Drug uptake (Kidney [30]): 0.65 % ID/g | Drug uptake (Muscle tissue [31]): tde | Drug uptake (Spleen [32]): 0.6 % ID/g | Drug uptake (Spleen [33]): tde | Drug uptake (Lung [34]): tde | Drug uptake (Blood [35]): 4.68 % ID/g | Drug uptake (Lung [36]): 0.87 % ID/g | Drug uptake (Kidney [37]): 0.97 % ID/g | Drug uptake (Muscle tissue [38]): 1.25 % ID/g | Ratio (Nucleic Acid [39]): 1.05 | Drug uptake (Spleen [40]): 1.19 % ID/g | Drug uptake (Muscle tissue [41]): 2.02 % ID/g | Drug uptake (Heart [42]): 2.64 % ID/g | Drug uptake (Blood [43]): 1.28 % ID/g
